pKi: −log10 of the molar value. Counter-ions that a name gives are not always drawn.
target: T1, guinea-pig NK3 receptors (Cavia porcellus, UniProt P30098); assay: Radioligand binding to guinea-pig NK3 receptors (guinea-pig cortex membranes, displacement of [3H]-Senktide or [125I]-[Me-Phe7]-NKB)
T1 sequence (P30098 1-440): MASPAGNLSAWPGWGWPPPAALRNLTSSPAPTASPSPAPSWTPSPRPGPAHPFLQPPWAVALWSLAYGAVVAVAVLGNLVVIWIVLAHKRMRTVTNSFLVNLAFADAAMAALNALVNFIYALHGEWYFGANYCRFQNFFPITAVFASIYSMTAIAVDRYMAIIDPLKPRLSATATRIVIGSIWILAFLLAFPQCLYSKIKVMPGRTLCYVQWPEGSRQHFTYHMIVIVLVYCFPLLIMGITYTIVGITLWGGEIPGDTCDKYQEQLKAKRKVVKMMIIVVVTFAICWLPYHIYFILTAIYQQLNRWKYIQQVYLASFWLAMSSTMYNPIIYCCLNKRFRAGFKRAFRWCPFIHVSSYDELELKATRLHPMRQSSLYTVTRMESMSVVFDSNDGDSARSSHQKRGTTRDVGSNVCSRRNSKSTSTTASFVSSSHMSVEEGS
Procedure: The activity of the compounds of the present invention, as NK3 ligands, is determined by their ability to inhibit the binding of the radiolabelled NK3 ligands, [^125I]-[Me-Phe^7]-NKB or [^3H]-Senktide, to guinea-pig and human NK3 receptors (Renzertti et al, 1991, Neuropeptide, 18, 104-114; Buell et al, 1992, FEBS, 299(1), 90-95; Chung et al, 1994, Biochem. Biophys. Res. Commun., 198(3), 967-972). The binding assays utilized allow the determination of the concentration of the individual compound required to reduce by 50% the [^125I]-[Me-Phe^7]-NKB and [^3H]-Senktide specific binding to NK3 receptor in equilibrium conditions (IC50). Binding assays provide for each compound tested a mean IC50 value of 2-5 separate experiments performed in duplicate or triplicate. […] The NK3-antagonist activity of the compounds of the present invention is determined by their ability to inhibit senktide-induced contraction of the guinea-pig ileum (Maggi et al, 1990, Br. J. Pharmacol., 101, 996-1000) and rabbit isolated iris sphincter muscle (Hall et al., 1991, Eur. J. Pharmacol., 199, 9-14) and human NK3 receptors-mediated Ca^++ mobilization (Mochizuki et al, 1994, J. Biol. Chem., 269, 9651-9658). Guinea-pig and rabbit in-vitro functional assays provide for each compound tested a mean KB value of 3-8 separate experiments, where KB is the concentration of the individual compound required to produce a 2-fold rightward shift in the concentration-response curve of senktide. Human receptor functional assay allows the determination of the concentration of the individual compound required to reduce by 50% (IC50 values) the Ca^++ mobilization induced by the agonist NKB.

| pKi | SMILES |
| --- | --- |
| 8.25 | CC[C@H](NC(=O)c1c(C)c(-c2ccccc2)nc2ccccc12)c1ccccc1 [Example 22] |
| 8.06 | CC[C@H](NC(=O)c1c(OC)c(-c2ccccc2)nc2ccccc12)c1ccccc1 [Example 47] |
| 7.92 | CCc1c(-c2ccccc2)nc2ccccc2c1C(=O)N[C@@H](CC)c1ccccc1 [Example 48] |

test system: not given; assay: not given

| melting point | SMILES |
| --- | --- |
| 140 °C (dec.) | COC(=O)[C@H](NC(=O)c1cc(-c2ccccc2)nc2ccccc12)c1ccc(O)cc1 (as salt: HCl) [Example 83, (R)-N-[α-(methoxycarbonyl)-4-hydroxybenzyl]-2-phenylquinoline-4-carboxamide] |
| 120 to 122 °C | COC(=O)[C@H](NC(=O)c1cc(-c2ccccc2)nc2ccccc12)C1=CCC=CC1 [Example 16] |
| 204 to 205 °C | C[C@H](O)[C@H](NC(=O)c1cc(-c2ccccc2)nc2ccccc12)c1ccccc1 [Example 17, (R,S)-N-[α-(1-hydroxyethyl)benzyl]-2-phenylquinoline-4-carboxamide] |
| 164 to 165 °C | CCC(NC(=O)c1c(OC)c(-c2ccccc2)nc2ccccc12)c1ccccc1 (centres unmarked) [Example 18] |
| 147 to 150 °C | CCCCc1c(-c2ccccc2)nc2ccccc2c1C(=O)NC(CC)c1ccccc1 (centres unmarked) [Example 19] |
| 186 to 188 °C | COC(=O)C(NC(=O)c1c2c(nc3ccccc13)-c1ccccc1CCC2)c1ccccc1 (centres unmarked) [Example 20] |
| 124 to 125 °C | COC(=O)C(NC(=O)c1cc(-c2ccccc2OC)nc2ccccc12)c1ccccc1 (centres unmarked) [Example 24] |
| 198 to 200 °C | CCC(NC(=O)c1c(-c2ccccc2)c(-c2ccccc2)nc2ccccc12)c1ccccc1 (centres unmarked) [Example 25] |
| 146 to 147 °C | COC(=O)C(NC(=O)c1cc(-c2ccccc2F)nc2ccccc12)c1ccccc1 (centres unmarked) [Example 26] |
| 193 to 194 °C | CCC(NC(=O)c1cc(-c2ccccc2)nc2ccccc12)c1ccc(Cl)c(Cl)c1 (centres unmarked) [Example 27] |
| 117 to 119 °C | O=C(NC(CO)c1ccccc1)c1cc(-c2ccccc2)nc2ccccc12 (centres unmarked) [Example 28] |
| 180 to 181 °C | COC(=O)C(NC(=O)c1c(C)c(-c2ccccc2)nc2ccccc12)c1ccccc1 (centres unmarked) [Example 30] |
| 180 to 183 °C | COC(=O)C(NC(=O)c1cc(-c2ccccc2)nc2cc(Cl)ccc12)c1ccccc1 (centres unmarked) [Example 32] |
| 179 to 181 °C | COC(=O)C(NC(=O)c1cc(-c2ccccc2)nc2ccc(C)cc12)c1ccccc1 (centres unmarked) [Example 33] |
| 144 to 145 °C | COCC(NC(=O)c1cc(-c2ccccc2)nc2ccccc12)c1ccccc1 (centres unmarked) [Example 34] |
| 197 to 199 °C | COC(=O)C(NC(=O)c1cc(-c2ccccc2)nc2ccc(Cl)cc12)c1ccccc1 (centres unmarked) [Example 35] |
| 156 to 157 °C | CCc1c(-c2ccccc2)nc2ccccc2c1C(=O)NC(C(=O)OC)c1ccccc1 (centres unmarked) [Example 36] |
| 149 to 150 °C | CCCC(NC(=O)c1cc(-c2ccccc2)nc2ccccc12)c1ccccc1 (centres unmarked) [Example 37] |
| 158 to 159 °C | CCc1c(-c2ccccc2)nc2ccccc2c1C(=O)NC(CC)c1ccccc1 (centres unmarked) [Example 38] |
| 201 to 202 °C | CCC(NC(=O)c1c(N2C(=O)c3ccccc3C2=O)c(-c2ccccc2)nc2ccccc12)c1ccccc1 (centres unmarked) [Example 39] |

| melting point | SMILES |
| --- | --- |
| 149 to 151 °C | CCCc1c(-c2ccccc2)nc2ccccc2c1C(=O)NC(CC)c1ccccc1 (centres unmarked) [Example 40] |
| 230 to 231 °C | CC[C@H](NC(=O)c1c(C)c(-c2ccc(Br)cc2)nc2ccc(Br)cc12)c1ccccc1 [Example 41] |
| 179 to 180 °C | CC[C@H](NC(=O)c1c(C)c(-c2ccccc2)nc2ccc(Br)cc12)c1ccccc1 [Example 42] |
| 209 to 211 °C | COC(=O)C(NC(=O)c1cc(-c2ccccc2)nc2ccc(OC)cc12)c1ccccc1 (centres unmarked) [Example 43] |
| 240 to 241 °C | COC(=O)C(NC(=O)c1cc(-c2cc3ccccc3o2)nc2ccccc12)c1ccccc1 (centres unmarked) [Example 44] |
| 194 to 196 °C | O=C(NC(Cc1ccccc1)c1ccccc1)c1cc(-c2ccccc2)nc2ccccc12 (centres unmarked) [Example 45] |
| 180 to 181 °C | O=C(NC(c1ccccc1)C(F)(F)F)c1cc(-c2ccccc2)nc2ccccc12 (centres unmarked) [Example 46] |
| 132 to 134 °C | CC[C@H](NC(=O)c1c(OC)c(-c2ccccc2)nc2ccccc12)c1ccccc1 [Example 47] |
| 118 to 120 °C | CCc1c(-c2ccccc2)nc2ccccc2c1C(=O)N[C@@H](CC)c1ccccc1 [Example 48] |
| 177 to 178 °C | CCC(NC(=O)c1cc(-c2ccccc2)nc2ccccc12)c1ccc(Cl)cc1 (centres unmarked) [Example 49] |
| 128 to 129 °C | COC(=O)C(c1ccccc1)N(C)C(=O)c1cc(-c2ccccc2)nc2ccccc12 (centres unmarked) [Example 50] |
| 169 to 171 °C | COC(=O)C(NC(=O)c1cc(-c2ccsc2)nc2ccccc12)c1ccccc1 (centres unmarked) [Example 51] |
| 217 to 219 °C | COC(=O)C(NC(=O)c1c2c(nc3ccccc13)-c1ccccc1CC2)c1ccccc1 (centres unmarked) [Example 52] |
| 181 to 182 °C | COC(=O)C(NC(=O)c1cc(-c2ccc[nH]2)nc2ccccc12)c1ccccc1 (centres unmarked) [Example 53] |
| 209 to 211 °C | COC(=O)C(NC(=O)c1cc(-c2nccs2)nc2ccccc12)c1ccccc1 (centres unmarked) [Example 54] |
| 155 to 156 °C | CCCCC(NC(=O)c1cc(-c2ccccc2)nc2ccccc12)c1ccccc1 (centres unmarked) [Example 56] |
| 172 to 174 °C | COC(=O)C(NC(=O)c1cc(-c2ccc(C)cc2)nc2ccccc12)c1ccccc1 (centres unmarked) [Example 57] |
| 180 to 182 °C | COC(=O)C(NC(=O)c1cc(-c2ccccc2C)nc2ccccc12)c1ccccc1 (centres unmarked) [Example 59] |
| 182 to 183 °C | COC(=O)C(NC(=O)c1cc(-c2ccc(OC)cc2)nc2ccccc12)c1ccccc1 (centres unmarked) [Example 60] |
| 164 to 165 °C | O=C(NC1(c2ccccc2)CCCC1)c1cc(-c2ccccc2)nc2ccccc12 [Example 61] |

| melting point | SMILES |
| --- | --- |
| 226 to 227 °C | COC(=O)C(NC(=O)c1cc(-c2ccc(O)cc2)nc2ccccc12)c1ccccc1 (centres unmarked) [Example 62] |
| 186 to 187 °C | COC(=O)C(NC(=O)c1cc(-c2ccc3c(c2)OCO3)nc2ccccc12)c1ccccc1 (centres unmarked) [Example 63] |
| 173 to 174 °C | CC(C)(NC(=O)c1cc(-c2ccccc2)nc2ccccc12)c1ccccc1 [Example 64] |
| 160 to 162 °C | CCC(NC(=O)c1cc(-c2ccccc2)nc2ccccc12)c1ccc(C)cc1 (centres unmarked) [Example 65] |
| 202 to 204 °C | COC(=O)C(NC(=O)c1cc(-c2cc[nH]c2)nc2ccccc12)c1ccccc1 (centres unmarked) [Example 66] |
| 164 to 165 °C | COC(=O)C(NC(=O)c1cc(-c2ccc(Cl)c(Cl)c2)nc2ccccc12)c1ccccc1 (centres unmarked) [Example 67] |
| 139 to 141 °C | NC[C@H](NC(=O)c1cc(-c2ccccc2)nc2ccccc12)c1ccccc1 [Example 68] |
| 137 to 139 °C | CC[C@H](NC(=O)c1c(Cl)c(-c2ccccc2)nc2ccccc12)c1ccccc1 [Example 70] |
| 119 to 122 °C | CC[C@H](NC(=O)c1c(Br)c(-c2ccccc2)nc2ccccc12)c1ccccc1 [Example 71] |
| 165 to 166 °C | CC(C)C(NC(=O)c1cc(-c2ccccc2)nc2ccccc12)c1ccccc1 (centres unmarked) [Example 72] |
| 174 to 176 °C | COC(=O)C(NC(=O)c1cc(-c2ccccc2)nc2ccc(F)cc12)c1ccccc1 (centres unmarked) [Example 75] |
| 151 to 153 °C | COC(=O)C(NC(=O)c1cc(C2CCCCC2)nc2ccccc12)c1ccccc1 (centres unmarked) [Example 76] |
| 161 to 163 °C | COC(=O)C(NC(=O)c1cc(-c2cccc(Cl)c2)nc2ccccc12)c1ccccc1 (centres unmarked) [Example 77] |
| 175 to 178 °C | COC(=O)C(NC(=O)c1cc(-c2ccccc2Cl)nc2ccccc12)c1ccccc1 (centres unmarked) [Example 78] |
| 193 to 194 °C | COC(=O)C(NC(=O)c1cc(-c2ccccc2)nc2c(OC(C)=O)cccc12)c1ccccc1 (centres unmarked) [Example 80] |
| 178 to 180 °C | COC(=O)C(NC(=O)c1cc(-c2ccccc2)nc2c(O)cccc12)c1ccccc1 (centres unmarked) [Example 81] |
| 142 to 143 °C | COC(=O)C(NC(=O)c1cc(-c2ccc(Cl)cc2Cl)nc2ccccc12)c1ccccc1 (centres unmarked) [Example 82] |
| 182 to 184 °C | O=C(NC(c1ccccc1)c1ccccc1)c1cc(-c2ccccc2)nc2ccccc12 [Example 84] |
| 125 to 127 °C | COC(=O)[C@H](NC(=O)c1c(O)c(-c2ccccc2)nc2ccccc12)c1ccccc1 [Example 87] |

Reference: patent publication US6743804B2, “Quinoline derivatives as NK3 antagonists” (SmithKline Beecham S p.A., priority 1996, dated 2004)
